Key:
Type in all cases: functional
CCRF-CEM = test: Cytotoxicity against human CCRF-CEM cells assessed as cell growth at 100 uM after 48 hrs by sulforhodamine B assay relative to control; conditions: read-out: Activity
MCF7 [1] = test: Cytotoxicity against human MCF7 cells assessed as growth inhibition after 48 hrs by sulforhodamine B assay; conditions: MCF7, 48 h
SW-620 [2] = test: Cytotoxicity against human SW620 cells assessed as cell growth at 100 uM after 48 hrs by sulforhodamine B assay relative to control; conditions: SW-620, 48 h, read-out: Activity
KM12 = test: Cytotoxicity against human KM12 cells assessed as growth inhibition after 48 hrs by sulforhodamine B assay; conditions: KM12, 48 h
ACHN [3] = test: Cytotoxicity against human ACHN cells assessed as cell growth at 100 uM after 48 hrs by sulforhodamine B assay relative to control; conditions: read-out: Activity
SN12C = test: Cytotoxicity against human SN12C cells assessed as growth inhibition after 48 hrs by sulforhodamine B assay
BT-549 = test: Cytotoxicity against human BT549 cells assessed as cell growth at 0.1 uM after 48 hrs by sulforhodamine B assay relative to control; conditions: BT-549, 48 h, read-out: Activity
ACHN [4] = test: Cytotoxicity against human ACHN cells assessed as growth inhibition after 48 hrs by sulforhodamine B assay
SNB-75 = test: Cytotoxicity against human SNB75 cells assessed as growth inhibition after 48 hrs by sulforhodamine B assay; conditions: SNB-75, 48 h
A498 = test: Cytotoxicity against human A498 cells assessed as cell growth at 0.1 uM after 48 hrs by sulforhodamine B assay relative to control; conditions: A498, 48 h, read-out: Activity
SK-OV-3 [5] = test: Cytotoxicity against human SKOV3 cells assessed as cell growth at 1 uM after 48 hrs by sulforhodamine B assay relative to control; conditions: SK-OV-3, 48 h, read-out: Activity
HT-29 = test: Cytotoxicity against human HT-29 cells assessed as cell growth at 100 uM after 48 hrs by sulforhodamine B assay relative to control; conditions: HT-29, 48 h, read-out: Activity
UACC-62 = test: Cytotoxicity against human UACC62 cells assessed as cell growth at 1 uM after 48 hrs by sulforhodamine B assay relative to control; conditions: UACC-62, 48 h, read-out: Activity
786-0 = test: Cytotoxicity against human 786-0 cells assessed as cell growth at 100 uM after 48 hrs by sulforhodamine B assay relative to control; conditions: 786-0, 48 h, read-out: Activity
SR = test: Cytotoxicity against human SR cells assessed as cell growth at 0.01 uM after 48 hrs by sulforhodamine B assay relative to control; conditions: read-out: Activity
RPMI-8226 = test: Cytotoxicity against human RPMI8226 cells assessed as cell growth at 10 uM after 48 hrs by sulforhodamine B assay relative to control; conditions: RPMI-8226, 48 h, read-out: Activity
NCI/ADR-RES [6] = test: Cytotoxicity against human NCI/ADR-RES cells assessed as cell growth at 100 uM after 48 hrs by sulforhodamine B assay relative to control; conditions: read-out: Activity
UO-31 = test: Cytotoxicity against human UO31 cells assessed as cell growth at 0.01 uM after 48 hrs by sulforhodamine B assay relative to control; conditions: UO-31, 48 h, read-out: Activity
PC-3 = test: Cytotoxicity against human PC3 cells assessed as growth inhibition after 48 hrs by sulforhodamine B assay; conditions: PC-3, 48 h
Malme-3M [7] = test: Cytotoxicity against human MALME-3M cells assessed as cell growth at 0.1 uM after 48 hrs by sulforhodamine B assay relative to control; conditions: read-out: Activity
Malme-3M [8] = test: Cytotoxicity against human MALME-3M cells assessed as cell growth at 1 uM after 48 hrs by sulforhodamine B assay relative to control; conditions: read-out: Activity
SK-OV-3 [9] = test: Cytotoxicity against human SKOV3 cells assessed as cell growth at 10 uM after 48 hrs by sulforhodamine B assay relative to control; conditions: SK-OV-3, 48 h, read-out: Activity
NCI/ADR-RES [10] = test: Cytotoxicity against human NCI/ADR-RES cells assessed as cell growth at 0.01 uM after 48 hrs by sulforhodamine B assay relative to control; conditions: read-out: Activity
RXF 393 = test: Cytotoxicity against human RXF393 cells assessed as cell growth at 0.01 uM after 48 hrs by sulforhodamine B assay relative to control; conditions: RXF 393, 48 h, read-out: Activity
SW-620 [11] = test: Cytotoxicity against human SW620 cells assessed as cell growth at 10 uM after 48 hrs by sulforhodamine B assay relative to control; conditions: SW-620, 48 h, read-out: Activity
SW-620 [12] = test: Cytotoxicity against human SW620 cells assessed as cell growth at 0.1 uM after 48 hrs by sulforhodamine B assay relative to control; conditions: SW-620, 48 h, read-out: Activity
MCF7 [13] = test: Cytotoxicity against human MCF7 cells assessed as cell growth at 10 uM after 48 hrs by sulforhodamine B assay relative to control; conditions: MCF7, 48 h, read-out: Activity
UACC-257 = test: Cytotoxicity against human UACC257 cells assessed as cell growth at 1 uM after 48 hrs by sulforhodamine B assay relative to control; conditions: UACC-257, 48 h, read-out: Activity
T47D = test: Cytotoxicity against human T47D cells assessed as growth inhibition after 48 hrs by sulforhodamine B assay
MDA-MB-468 = test: Cytotoxicity against human MDA-MB-468 cells assessed as cell growth at 1 uM after 48 hrs by sulforhodamine B assay relative to control; conditions: MDA-MB-468, 48 h, read-out: Activity
K562 = test: Cytotoxicity against human K562 cells assessed as cell growth at 10 uM after 48 hrs by sulforhodamine B assay relative to control; conditions: K562, 48 h, read-out: Activity
NCI-H23 = test: Cytotoxicity against human NCI-H23 cells assessed as cell growth at 100 uM after 48 hrs by sulforhodamine B assay relative to control; conditions: NCI-H23, 48 h, read-out: Activity
A549 = test: Cytotoxicity against human A549/ATCC cells assessed as cell growth at 10 uM after 48 hrs by sulforhodamine B assay relative to control; conditions: A549, 48 h, read-out: Activity
NCI-H460 = test: Cytotoxicity against human NCI-H460 cells assessed as cell growth at 0.01 uM after 48 hrs by sulforhodamine B assay relative to control; conditions: NCI-H460, 48 h, read-out: Activity
MDA-MB-435 = test: Cytotoxicity against human MDA-MB-435 cells assessed as cell growth at 100 uM after 48 hrs by sulforhodamine B assay relative to control; conditions: MDA-MB-435, 48 h, read-out: Activity
HL-60(TB) = test: Cytotoxicity against human HL-60(TB) cells assessed as growth inhibition after 48 hrs by sulforhodamine B assay; conditions: HL-60, 48 h

Molecule `COc1ccc(-c2cc(/C=C/C(=O)c3cc(OC)c(OC)c(OC)c3)[nH]n2)cc1OC` has a growth at 100 µM (CCRF-CEM) of -13%, a GI50 (MCF7 [1]) of 1.06 µM and a TGI (MCF7 [1]) of 2.5 µM. For the same molecule, the growth at 100 µM (SW-620 [2]) was -43%, the GI50 (KM12) was 0.78 µM and the LC50 (KM12) was 5.68 µM. The TGI (KM12) was 2.27 µM, the growth at 100 µM (ACHN [3]) was -84% and the GI50 (SN12C) was 1.77 µM. It also gave an LC50 (SN12C) of 8.26 µM, a TGI (SN12C) of 3.83 µM and a growth at 0.1 µM (BT-549) of 82%. It also gave a GI50 (ACHN [4]) of 1.45 µM, an LC50 (ACHN [4]) of 5.5 µM and a TGI (ACHN [4]) of 2.82 µM. For the same molecule, the GI50 (SNB-75) was 1.31 µM, the LC50 (concentration killing 50% of cells) (SNB-75) was 12.7 µM and the TGI (SNB-75) was 3.77 µM. The growth at 0.1 µM (A498) was 89%, the growth at 1 µM (SK-OV-3 [5]) was 87% and the growth at 100 µM (HT-29) was -66%. It also gave a growth at 1 µM (UACC-62) of 88%, a growth at 100 µM (786-0) of -90% and a growth at 0.01 µM (SR) of 93%. The growth at 10 µM (RPMI-8226) was -38%, the growth at 100 µM (NCI/ADR-RES [6]) was -7% and the growth at 0.01 µM (UO-31) was 88%. The GI50 (PC-3) was 1.99 µM, the LC50 (PC-3) was 48.2 µM and the TGI (PC-3) was 10.3 µM. The growth at 0.1 µM (Malme-3M [7]) was 89%, the growth at 1 µM (Malme-3M [8]) was 93% and the growth at 10 µM (SK-OV-3 [9]) was 37%. It also gave a growth at 0.01 µM (NCI/ADR-RES [10]) of 97%, a growth at 0.01 µM (RXF 393) of 103% and a growth at 10 µM (SW-620 [11]) of -43%. The growth at 0.1 µM (SW-620 [12]) was 96%, the growth at 10 µM (MCF7 [13]) was -81% and the growth at 1 µM (UACC-257) was 89%. The GI50 (T47D) was 1.01 µM, the LC50 (T47D) was greater than 100 µM and the TGI (T47D) was 3.76 µM. The growth at 1 µM (MDA-MB-468) was 66%, the growth at 10 µM (K562) was -1% and the growth at 100 µM (NCI-H23) was -50%. It also gave a growth at 10 µM (A549) of -2%, a growth at 0.01 µM (NCI-H460) of 100% and a growth at 100 µM (MDA-MB-435) of -78%. It also gave a GI50 (HL-60(TB)) of 1.69 µM, an LC50 (HL-60(TB)) greater than 100 µM and a TGI (HL-60(TB)) of 14.8 µM.

`COc1ccc(C(=O)/C=C/c2cc(-c3cc(OC)c(OC)c(OC)c3)n[nH]2)cc1OC` gave a growth at 100 µM (CCRF-CEM) of -15%, an LC50 (MCF7 [1]) of 5.72 µM and a TGI (MCF7 [1]) of 1.95 µM. The growth at 100 µM (SW-620 [2]) was -67%, the LC50 (KM12) was 5.43 µM and the TGI (KM12) was 2.41 µM. The growth at 100 µM (ACHN [3]) was -91%, the LC50 (SN12C) was 6.37 µM and the TGI (SN12C) was 3.13 µM. The growth at 0.1 µM (BT-549) was 90%, the LC50 (ACHN [4]) was 5.75 µM and the TGI (ACHN [4]) was 3.09 µM. It also gave a growth at 0.1 µM (A498) of 86%, a growth at 1 µM (SK-OV-3 [5]) of 100% and a growth at 100 µM (HT-29) of -81%. For the same molecule, the growth at 1 µM (UACC-62) was 95%, the growth at 100 µM (786-0) was -84% and the growth at 0.01 µM (SR) was 100%. For the same molecule, the growth at 10 µM (RPMI-8226) was -50%, the growth at 100 µM (NCI/ADR-RES [6]) was -40% and the growth at 0.01 µM (UO-31) was 86%. It also gave an LC50 (PC-3) of 5.76 µM, a TGI (PC-3) of 2.8 µM and a growth at 0.1 µM (Malme-3M [7]) of 92%. For the same molecule, the growth at 1 µM (Malme-3M [8]) was 106%, the growth at 10 µM (SK-OV-3 [9]) was -12% and the growth at 0.01 µM (NCI/ADR-RES [10]) was 99%. For the same molecule, the growth at 0.01 µM (RXF 393) was 100%, the growth at 10 µM (SW-620 [11]) was -77% and the growth at 0.1 µM (SW-620 [12]) was 99%. It also gave a growth at 10 µM (MCF7 [13]) of -76%, a growth at 1 µM (UACC-257) of 81% and an LC50 (T47D) greater than 100 µM. It also gave a TGI (T47D) of 4.36 µM, a growth at 1 µM (MDA-MB-468) of 45% and a growth at 10 µM (K562) of -13%. It also gave a growth at 100 µM (NCI-H23) of -75%, a growth at 10 µM (A549) of -43% and a growth at 0.01 µM (NCI-H460) of 103%. The growth at 100 µM (MDA-MB-435) was -73%, the LC50 (HL-60(TB)) was 80.2 µM and the TGI (HL-60(TB)) was 4.18 µM.

Reference: ChEMBL document CHEMBL4138123, “Design, synthesis and biological evaluation of novel pyrazolochalcones as potential modulators of PI3K/Akt/mTOR pathway and inducers of apoptosis in breast cancer cells” (Eur J Med Chem, 2017)
